Measurements taken from the NIST ThermoML archive (doi:10.1021/je200811n).

Details: Hot wire method

C=C(F)C(F)(F)F [2,3,3,3-tetrafluoro-1-propene]
Details	thermal conductivity [W/m/K]
332.05 K, 300 kPa, Gas	0.01662
332.05 K, 1511 kPa, Gas	0.01807
332.06 K, 821 kPa, Gas	0.01681
332.12 K, 1388 kPa, Gas	0.01774
332.13 K, 627 kPa, Gas	0.01673
332.19 K, 1235 kPa, Gas	0.01737
332.21 K, 465 kPa, Gas	0.01667
332.27 K, 1074 kPa, Gas	0.01714
332.3 K, 974 kPa, Gas	0.01699
332.31 K, 299 kPa, Gas	0.01673
332.33 K, 1511 kPa, Gas	0.01806
332.36 K, 820 kPa, Gas	0.01686
332.38 K, 202 kPa, Gas	0.0168
332.41 K, 1386 kPa, Gas	0.01772
332.46 K, 626 kPa, Gas	0.01677
332.48 K, 1233 kPa, Gas	0.01739
332.55 K, 102 kPa, Gas	0.01703
332.56 K, 463 kPa, Gas	0.01674
332.58 K, 1073 kPa, Gas	0.01716
332.62 K, 973 kPa, Gas	0.01704
332.62 K, 1511 kPa, Gas	0.01806
332.67 K, 299 kPa, Gas	0.01675
332.69 K, 819 kPa, Gas	0.0169
332.71 K, 1385 kPa, Gas	0.0177
332.75 K, 202 kPa, Gas	0.01687
332.81 K, 626 kPa, Gas	0.01677
332.81 K, 1233 kPa, Gas	0.01741
332.91 K, 1072 kPa, Gas	0.01718
332.91 K, 1511 kPa, Gas	0.01803
332.92 K, 461 kPa, Gas	0.01677
332.95 K, 101 kPa, Gas	0.01705
332.96 K, 972 kPa, Gas	0.01706
333.04 K, 299 kPa, Gas	0.01681
333.04 K, 1384 kPa, Gas	0.0177
333.05 K, 818 kPa, Gas	0.01692
333.14 K, 1232 kPa, Gas	0.01741
333.15 K, 202 kPa, Gas	0.01686
333.18 K, 625 kPa, Gas	0.01682
333.26 K, 1071 kPa, Gas	0.0172
333.3 K, 460 kPa, Gas	0.01681
333.31 K, 972 kPa, Gas	0.01708
333.38 K, 101 kPa, Gas	0.01705
333.41 K, 817 kPa, Gas	0.01696
333.45 K, 300 kPa, Gas	0.01686
333.56 K, 624 kPa, Gas	0.01687
333.57 K, 202 kPa, Gas	0.01692
333.69 K, 460 kPa, Gas	0.01685
333.83 K, 102 kPa, Gas	0.0171
333.87 K, 300 kPa, Gas	0.01688
334.02 K, 202 kPa, Gas	0.01695
334.31 K, 102 kPa, Gas	0.01716
341.28 K, 102 kPa, Gas	0.01759
341.35 K, 201 kPa, Gas	0.01779
341.39 K, 303 kPa, Gas	0.01795
341.45 K, 17165 kPa, Liquid	0.0645
341.49 K, 102 kPa, Gas	0.01745
341.52 K, 12122 kPa, Liquid	0.06134
341.52 K, 21726 kPa, Liquid	0.06742
341.55 K, 17165 kPa, Liquid	0.06461
341.56 K, 200 kPa, Gas	0.01761
341.6 K, 303 kPa, Gas	0.01775
341.6 K, 8202 kPa, Liquid	0.05839
341.61 K, 21724 kPa, Liquid	0.06756
341.62 K, 12120 kPa, Liquid	0.06114
341.69 K, 5189 kPa, Liquid	0.05547
341.7 K, 8198 kPa, Liquid	0.05823
341.73 K, 103 kPa, Gas	0.01734
341.77 K, 2101 kPa, Liquid	0.05131
341.79 K, 200 kPa, Gas	0.0175
341.8 K, 5187 kPa, Liquid	0.05524
341.8 K, 17162 kPa, Liquid	0.0647
341.82 K, 302 kPa, Gas	0.01766
341.85 K, 21720 kPa, Liquid	0.06741
341.88 K, 12117 kPa, Liquid	0.06141
341.89 K, 2100 kPa, Liquid	0.05083
341.92 K, 17160 kPa, Liquid	0.06488
341.96 K, 103 kPa, Gas	0.01726
341.96 K, 21718 kPa, Liquid	0.06759
341.98 K, 8198 kPa, Liquid	0.05827
342.01 K, 12114 kPa, Liquid	0.06141
342.02 K, 199 kPa, Gas	0.01743
342.03 K, 1842 kPa, Gas	0.01945
342.03 K, 1904 kPa, Gas	0.01996
342.04 K, 1737 kPa, Gas	0.0191
342.05 K, 302 kPa, Gas	0.01758
342.07 K, 1574 kPa, Gas	0.01854
342.08 K, 5185 kPa, Liquid	0.0553
342.11 K, 8197 kPa, Liquid	0.05815
342.16 K, 1405 kPa, Gas	0.01818
342.17 K, 951 kPa, Gas	0.01775
342.18 K, 17158 kPa, Liquid	0.06504
342.19 K, 814 kPa, Gas	0.0177
342.19 K, 2098 kPa, Liquid	0.05099
342.21 K, 103 kPa, Gas	0.01718
342.22 K, 5183 kPa, Liquid	0.05512
342.22 K, 21716 kPa, Liquid	0.0677
342.26 K, 605 kPa, Gas	0.01764
342.27 K, 199 kPa, Gas	0.01735
342.27 K, 1842 kPa, Gas	0.01963
342.27 K, 1904 kPa, Gas	0.01971
342.28 K, 12111 kPa, Liquid	0.06144
342.29 K, 302 kPa, Gas	0.0175
342.29 K, 1736 kPa, Gas	0.01924
342.29 K, 1903 kPa, Gas	0.01966
342.32 K, 459 kPa, Gas	0.01763
342.32 K, 17157 kPa, Liquid	0.06503
342.34 K, 1573 kPa, Gas	0.01875
342.34 K, 2096 kPa, Liquid	0.05065
342.36 K, 21715 kPa, Liquid	0.06785
342.4 K, 8195 kPa, Liquid	0.05822
342.43 K, 1404 kPa, Gas	0.01834
342.44 K, 12112 kPa, Liquid	0.06137
342.47 K, 949 kPa, Gas	0.01781
342.47 K, 1242 kPa, Gas	0.01809
342.5 K, 813 kPa, Gas	0.01767
342.5 K, 1096 kPa, Gas	0.01796
342.51 K, 1904 kPa, Gas	0.01989
342.52 K, 1841 kPa, Gas	0.01962
342.52 K, 1904 kPa, Gas	0.01982
342.52 K, 5181 kPa, Liquid	0.05511
342.54 K, 939 kPa, Gas	0.01779
342.55 K, 1735 kPa, Gas	0.01923
342.56 K, 303 kPa, Gas	0.01766
342.56 K, 8193 kPa, Liquid	0.05802
342.6 K, 17155 kPa, Liquid	0.06501
342.61 K, 1572 kPa, Gas	0.01878
342.63 K, 201 kPa, Gas	0.01782
342.63 K, 21712 kPa, Liquid	0.06777
342.66 K, 458 kPa, Gas	0.01768
342.66 K, 2094 kPa, Liquid	0.05079
342.69 K, 5181 kPa, Liquid	0.05482
342.72 K, 1403 kPa, Gas	0.01842
342.73 K, 12110 kPa, Liquid	0.06135
342.75 K, 102 kPa, Gas	0.01803
342.77 K, 1903 kPa, Gas	0.01985
342.77 K, 17154 kPa, Liquid	0.06488
342.78 K, 1241 kPa, Gas	0.01818
342.78 K, 1841 kPa, Gas	0.01962
342.79 K, 948 kPa, Gas	0.01785
342.79 K, 1904 kPa, Gas	0.01984
342.79 K, 21708 kPa, Liquid	0.06775
342.82 K, 1095 kPa, Gas	0.01798
342.83 K, 812 kPa, Gas	0.01775
342.83 K, 1734 kPa, Gas	0.01925
342.86 K, 939 kPa, Gas	0.01784
342.86 K, 8191 kPa, Liquid	0.05808
342.89 K, 1571 kPa, Gas	0.01877
342.9 K, 12107 kPa, Liquid	0.06122
342.91 K, 302 kPa, Gas	0.01773
343.01 K, 201 kPa, Gas	0.01784
343.01 K, 5178 kPa, Liquid	0.05499
343.02 K, 458 kPa, Gas	0.0177
343.03 K, 1402 kPa, Gas	0.01843
343.03 K, 1903 kPa, Gas	0.01984
343.05 K, 8190 kPa, Liquid	0.05781
343.05 K, 17151 kPa, Liquid	0.06493
343.06 K, 1840 kPa, Gas	0.01962
343.06 K, 1904 kPa, Gas	0.01984
343.06 K, 21708 kPa, Liquid	0.06763
343.1 K, 1240 kPa, Gas	0.01819
343.12 K, 946 kPa, Gas	0.01784
343.12 K, 1733 kPa, Gas	0.0192
343.14 K, 1094 kPa, Gas	0.01802
343.15 K, 102 kPa, Gas	0.01805
343.17 K, 2093 kPa, Liquid	0.05051
343.19 K, 810 kPa, Gas	0.0178
343.2 K, 938 kPa, Gas	0.0179
343.2 K, 12105 kPa, Liquid	0.06126
343.21 K, 1570 kPa, Gas	0.01879
343.21 K, 5176 kPa, Liquid	0.05461
343.25 K, 17149 kPa, Liquid	0.06474
343.25 K, 21706 kPa, Liquid	0.06757
343.29 K, 302 kPa, Gas	0.01776
343.29 K, 606 kPa, Gas	0.01775
343.35 K, 1401 kPa, Gas	0.01847
343.36 K, 8188 kPa, Liquid	0.05795
343.39 K, 2092 kPa, Liquid	0.05007
343.4 K, 200 kPa, Gas	0.01785
343.41 K, 459 kPa, Gas	0.01776
343.41 K, 12104 kPa, Liquid	0.06108
343.43 K, 1239 kPa, Gas	0.01822
343.48 K, 945 kPa, Gas	0.01791
343.49 K, 1093 kPa, Gas	0.01807
343.53 K, 5176 kPa, Liquid	0.05477
343.55 K, 809 kPa, Gas	0.01783
343.55 K, 937 kPa, Gas	0.01797
343.56 K, 102 kPa, Gas	0.01807
343.58 K, 8186 kPa, Liquid	0.0576
343.68 K, 606 kPa, Gas	0.0178
343.69 K, 302 kPa, Gas	0.01781
343.72 K, 2091 kPa, Liquid	0.05023
343.77 K, 5174 kPa, Liquid	0.05432
343.8 K, 200 kPa, Gas	0.0179
343.8 K, 459 kPa, Gas	0.0178
343.99 K, 2090 kPa, Liquid	0.05015
344 K, 103 kPa, Gas	0.01811
344.09 K, 302 kPa, Gas	0.01783
344.23 K, 199 kPa, Gas	0.01797
344.46 K, 103 kPa, Gas	0.01816

Liquid
Details	thermal conductivity [W/m/K]
333.15 K	0.05329
343.15 K	0.05091
